Five molecules from US10975385B2, “Methods of modulating stomata conductance and plant expression constructs for executing same” (The State of Israel, Ministry of Agriculture & Rural …, priority 2011, dated 2021) can be followed below.

The subject of test [1] is stomata (stomatal aperture). Description: Stomatal aperture of intact leaves immersed in artificial apoplastic sap, measured on epidermal imprints. The test is classed as cell-based, tomato (Solanum lycopersicum cv. MP-1). Conditions: 3 h. As for the experimental part:
Stomatal aperture and density are determined using the rapid imprinting technique described by […] and Sack (2002). This approach allows to reliably score hundreds of stomata from each experiment, each of which is sampled at the same time. Light-bodied vinylpolysiloxane dental resin (Heraeus-Kulzer, Hanau, Germany) is attached to the abaxial leaf side and then removed as soon as it dries (1 min). The resin epidermal imprints are than covered with nail polish, which removed once it had dried out and serves as a mirror image of the resin imprint. The nail-polish imprints are put on glass cover slips and photographed under bright-field microscope. Stomata images are later analyzed to determine aperture size using the ImageJ software (World Wide Web (dot) rsb (dot) info (dot) nih (dot) gov/ij/) fit-ellipse tool or any other software that can process and analyze images. A microscopic ruler is used for the size calibration. Additional information can be obtained from the software such as stomata width, length, area, perimeter etc. To assess stomatal responses, leaflets are cut and immediately immerse in artificial xylem sap solution (AXS) (Wilkinson and Davies, 1997) containing 100 mM sucrose (Duchefa Biochemie) with or without 20 mM N-acetyl glucosamine (NAG, Sigma-Aldrich), 100 mM or 200 mM glucose (Duchefa Biochemie), 100 mM or 200 mM fructose (Sigma-Aldrich), 100 mM 2-deoxyglucose (Sigma-Aldrich), 10 mM or 100 mM mannose (Sigma-Aldrich), 100 mM sorbitol (Sigma-Aldrich) or 100 mM or 200 mM mannitol (Duchefa Biochemie). The sorbitol and mannitol treatments serve as non-metabolic osmotic controls. Imprints are taken 3 h after immersion and stomatal aperture is analyzed. Different plant species can be used as well as, AXS solutions, treatment solutions and different timings to our decision.

For the next test, the system named is guard cells. The test is described as follows: Nitric oxide production in guard cells of epidermal peels (DAF-2DA fluorescence). Conditions: for NO production and stomatal closure in ABA-deficient mutant: Sitiens epidermal peels, 100 mM Suc or 100 μM ABA; for effect on NO levels in guard cells: 100 mM sorbitol or 20 mM NAG with 100 mM Suc. The test is classed as cell-based, tomato. As to the method:
Detection of nitric oxide (NO) levels in stomata is performed as follows: Epidermal peels are prepared and incubated in MES buffer [25 mM MES-KOH, pH=6.15 and 10 mM KCl (MES, 2-(N-morpholino)-ethane sulfonic acid; Sigma-Aldrich] with or without 20 mM NAG, for 2.5 h under steady light, and then loaded with 60 μM NO indicator dye, DAF-2DA (4, 5-diaminofluorescein diacetate; Sigma-Aldrich), diluted in MES buffer with or without 20 mM N-acetyl glucosamine (NAG, Sigma-Aldrich) and left for an additional 50 min. Then, the peels are washed with MES 3 times and re-incubated for 30 min in the buffer (control, set as 100% fluorescence) or in 100 mM sorbitol, 100 mM sucrose and 20 mM NAG. The peels are then photographed under a microscope (see Materials and Methods, “Confocal microscopy imaging”). Three to four biological repeats containing 20-30 stomata each are included in each experiment and each experiment is repeated several times. Images are analyzed using the ImageJ software histogram tool to evaluate fluorescence intensity and the fit-ellipse tool to determine stomatal aperture. It is possible to use epidermal strips from different species, use different treatments solutions and different timings, all to our decision. Images are acquired using the OLYMPUS IX 81 (Japan) inverted laser scanning confocal microscope (FLUOVIEW 500) equipped with a 488-nm argon ion laser and a 60X1.0 NA PlanApo water immersion objective. Nitric oxide- DAF-2DA (4, 5-diaminofluorescein diacetate; Sigma-Aldrich) fluorescence is excited by 488-nm light and the emission is collected using a BA 505-525 filter. GFP is excited by 488-nm light and the emission is collected using a BA 505-525 filter. A BA 660 IF emission filter is used to observe chlorophyll autofluorescence. Confocal optical sections are obtained at 0.5-μm increments. The images are color-coded green for GFP and magenta for chlorophyll autofluorescence.

`O=CC[C@@H](O)[C@H](O)[C@H](O)CO` [2-dG, 2-deoxyglucose]: in test [1] (WT leaves, vs mannitol osmotic control), the “effect on stomatal aperture” value is “reduced stomatal aperture”.
With `CC1=CC(=O)CC(C)(C)[C@@]1(O)/C=C/C(C)=C\C(=O)O` [ABA, abscisic acid], the “NO production and stomatal closure in ABA-deficient mutant” value with guard cells (30 min) is reported as “did trigger the production of NO”.
For `CC(=O)N[C@H]1C(O)O[C@H](CO)[C@@H](O)[C@@H]1O` (stereo partly drawn) [NAG, N-acetyl glucosamine], the “effect on Suc-induced stomatal closure of AtHXK1-expressing plants” value in test [1] (HK4 leaves, 100 mM Suc with 20 mM NAG) is reported as “abolished the closing effect of Suc”. The “effect on Suc-induced stomatal closure” value in test [1] (WT leaves, 100 mM Suc with 20 mM NAG) is “almost completely abolished the effect of Suc and prevented stomatal closure”. The “time to resumption of NO production after washing out NAG” value in the test on guard cells (NAG washed out with 100 mM Suc) is “less than 30 min”. In the test on guard cells (WT epidermal peels, 30 min), the “effect on NO levels in guard cells” value is listed as “prevented the production of NO”.
With `OC[C@H]1O[C@@](CO)(O[C@H]2O[C@H](CO)[C@@H](O)[C@H](O)[C@H]2O)[C@@H](O)[C@@H]1O` [Suc, sucrose], the “effect on stomatal aperture of AtHXK1-expressing plants” value in test [1] (HK4 leaves, 100 mM Suc) was “caused the stomata to close even further”. The “decrease of stomatal aperture size relative to sorbitol” value in test [1] (WT tomato leaflets, 100 mM Suc vs 100 mM sorbitol) is 29%. Moreover, in the test with guard cells (HK4 epidermal peels, Suc added), the “effect on guard-cell fluorescence of AtHXK1-expressing line” value is recorded as “even more intense fluorescence”. Moreover, the “NO production and stomatal closure in ABA-deficient mutant” value with guard cells (30 min) is recorded as “did not result in any increase in fluorescence or stomatal closure”. For the same molecule, in the test with guard cells (WT epidermal peels, 100 mM, 30 min), the “increase in guard-cell fluorescence (NO levels)” value is given as 3.5 fold.
`OC[C@@H](O)[C@@H](O)[C@H](O)[C@@H](O)CO` [sorbitol]: the “effect on NO levels in guard cells” value in the test on guard cells (WT epidermal peels, 30 min) was “had no effect on NO levels”.
